Data taken from patent US10393633B2, “Sample fixation and stabilisation” (RNASSIST LTD., priority 2013, dated 2019).
Like-named read-outs stand apart in the source and are kept apart here.

Legend:
[1] = Solid or liquid state of the mixtures at 24° C. / 100° C.; format: physicochemical; details: for Room temperature (24° C.) DES liquid on mixing with Choline chloride: 1:2 mol:mol proportion
RNA in rat tissue = assay: RNA stabilisation in animal tissue by DES mixtures, 37° C. 18 hours, RNA yield and gel RNA quality (Example 3, Tables 1 and 2)
RNA of guanidine lysate = assay: RNA yields from Guanidine/Choline chloride:Trifluoroacetamide mixtures in the absence of ethanol for binding (Example 30, Table 11); set-up: species or system mouse; details: no ethanol
[2] = 0 highly degraded to 10 highest quality, 18S/28S rRNA on agarose gel, 37° C. 18 hours
[3] = Table 1, solid or liquid at room temperature

Row | Room temperature (24° C.) DES liquid on mixing with Choline chloride [1] | Structure (SMILES) | other results
1 |  | C[N+](C)(C)CCO.[Cl-] [Choline chloride:Water (6M), Choline chloride, reference compound] | RNA Quality 0-10 (RNA in rat tissue): 3; Liquid at 24° C. [1]: Saturated
2 |  | N.N.N.O=P(O)(O)O [Ammonium phosphate] | Formation of room temperature DES liquids by ammonium salts [1]: not capable of forming room temperature DES liquids
3 | could not be prepared | NC(=O)C(N)=O [Oxamide] | 
4 |  | NC(N)=O [Water:Urea (5M), Urea, reference compound] | RNA Quality 0-10 (RNA in rat tissue; [2]): 0; Liquid at 24° C. [1, 3]: Saturated
5 | could not be prepared | CCn1ccnc1 [N-Ethylimidazole] | 
6 |  | NC(=O)C(F)(F)F [Trifluoroacetamide] | RNA yield compared with Choline chloride:Trifluoroacetamide dissolved in Buffer RLT (1:1 wt:wt) (RNA of guanidine lysate): 15%
7 | could not be prepared | CC(C)(C)C(N)=O [Pivalamide] | 
8 | could not be prepared | O=C(O)[C@@H]1CCCN1 [Proline] | 
9 | could not be prepared | CN1CCN(C)C1=O [1,3-Dimethyl-2-imidazolidone] | 
10 | could not be prepared | O=C1OCCO1 [Ethylene carbonate] | 
11 | could not be prepared | O=CN1CCOCC1 [4-Formyl morpholine] | 
12 |  | C[N+](C)(C)CC(=O)O [Betaine:Water (Sat'd), Betaine, reference compound] | RNA Quality 0-10 (RNA in rat tissue; [2]): 0; Liquid at 24° C. [1, 3]: Yes
13 | could not be prepared | CCN1CCCC1=O [1-Ethyl-2-pyrrol] | 

Row | Structure (SMILES) | Room temperature (24° C.) DES liquid on mixing with Choline chloride [1] | other results
14 | c1ccc(Cn2ccnc2)cc1 [1-Benzylimidazole] | could not be prepared | 
15 | CC(=O)CCC(C)=O [Acetonyl acetone] | could not be prepared | 
